The source made the active and inactive calls. The calls are words filed in the database; no cut-off is given here.
Assays:
[1] = tested on: Human immunodeficiency virus 1; test: Ratio of IC50 for ENF-resistant HIV1 NL4-3 harboring gp41 N-terminal heptad repeat D36S/V38M double mutant to IC50 for wild type HIV1 NL4-3; assay type: functional
[2] = tested on: Envelope glycoprotein gp160 (Human immunodeficiency virus 1), Q72502 [V38A]; test: Binding affinity to HIV1 NL4-3 gp41 N-terminal heptad repeat V38A mutant after 30 mins by CD spectroscopic analysis
[3] = tested on: Human immunodeficiency virus 1; test: Ratio of IC50 for ENF-resistant HIV1 NL4-3 harboring gp41 N-terminal heptad repeat V38M mutant to IC50 for wild type HIV1 NL4-3; assay type: functional
[4] = tested on: Human immunodeficiency virus 1; test: Antiviral activity against ENF-resistant HIV1 NL4-3 harboring gp41 N-terminal heptad repeat V38A mutant infected in human TZM-bl cells assessed as inhibition of viral entry into cells after 48 hrs by single-cycle infection assay; assay type: functional, organism-based
[5] = target: Envelope glycoprotein gp160 (Human immunodeficiency virus 1) (UniProt Q72502); test: Binding affinity to HIV1 NL4-3 gp41 N-terminal heptad repeat G36D mutant after 30 mins by CD spectroscopic analysis
[6] = target: Envelope glycoprotein gp160 (Human immunodeficiency virus 1) (UniProt Q72502); test: Binding affinity to HIV1 NL4-3 gp41 N-terminal heptad repeat I37T mutant after 30 mins by CD spectroscopic analysis
[7] = tested on: Human immunodeficiency virus 1; test: Antiviral activity against ENF-resistant HIV1 NL4-3 harboring gp41 N-terminal heptad repeat I37T mutant infected in human TZM-bl cells assessed as inhibition of viral entry into cells after 48 hrs by single-cycle infection assay; assay type: functional, organism-based
[8] = tested on: Human immunodeficiency virus 1; test: Ratio of IC50 for ENF-resistant HIV1 NL4-3 harboring gp41 N-terminal heptad repeat I37T/N43K double mutant to IC50 for wild type HIV1 NL4-3; assay type: functional
[9] = target: Envelope glycoprotein gp160 (Human immunodeficiency virus 1) (UniProt Q72502); test: Binding affinity to HIV1 NL4-3 gp41 N-terminal heptad repeat V38A/N42T double mutant after 30 mins by CD spectroscopic analysis
[10] = tested on: Human immunodeficiency virus 1; test: Antiviral activity against ENF-resistant HIV1 NL4-3 harboring gp41 N-terminal heptad repeat I37T/N43K double mutant infected in human TZM-bl cells assessed as inhibition of viral entry into cells after 48 hrs by single-cycle infection assay; assay type: functional, organism-based
[11] = tested on: Human immunodeficiency virus 1; test: Ratio of IC50 for ENF-resistant HIV1 NL4-3 harboring gp41 N-terminal heptad repeat N43K mutant to IC50 for wild type HIV1 NL4-3; assay type: functional
[12] = tested on: Human immunodeficiency virus 1; test: Antiviral activity against ENF-resistant HIV1 NL4-3 harboring gp41 N-terminal heptad repeat N43K mutant infected in human TZM-bl cells assessed as inhibition of viral entry into cells after 48 hrs by single-cycle infection assay; assay type: functional, organism-based
[13] = tested on: Human immunodeficiency virus 1; test: Antiviral activity against HIV-1 SC42261.8 pseudovirus infected in human TZM-bl cells assessed as inhibition of viral entry into cells after 48 hrs by single-cycle infection assay; assay type: functional, organism-based; conditions: Human immunodeficiency virus 1, SC42261.8, TZM-bl
[14] = target: Envelope glycoprotein gp160 (Human immunodeficiency virus 1) (UniProt Q72502); test: Binding affinity to HIV1 NL4-3 gp41 N-terminal heptad repeat Q40H mutant after 30 mins by CD spectroscopic analysis
[15] = tested on: Human immunodeficiency virus 1; test: Antiviral activity against wild type HIV1 NL4-3 infected in human TZM-bl cells assessed as inhibition of viral entry into cells after 48 hrs by single-cycle infection assay; assay type: functional, organism-based; conditions: Human immunodeficiency virus 1, NL4-3, TZM-bl
[16] = tested on: Serum; test: Metabolic stability in Sprague-Dawley rat serum at 4 mg/kg, ip measured at 0.5 to 2 hrs post dose; assay type: ADME, organism-based; conditions: in vivo
[17] = tested on: Human immunodeficiency virus 1; test: Antiviral activity against wild type HIV-1; assay type: functional, organism-based
[18] = target: Envelope glycoprotein gp160 (Human immunodeficiency virus type 1 group M subtype B (isolate HXB2)(HIV-1), UniProt P04578); test: Binding affinity to HIV-1 HXB2 gp41 N-terminal heptad repeat assessed as inhibition of 6-helix bundle formation after 30 mins by ELISA; design: species or system Human immunodeficiency virus 1
[19] = tested on: Human immunodeficiency virus 1; test: Antiviral activity against ENF-resistant HIV1 NL4-3 harboring gp41 N-terminal heptad repeat D36G mutant infected in human TZM-bl cells assessed as inhibition of viral entry into cells after 48 hrs by single-cycle infection assay; assay type: functional, organism-based
[20] = tested on: Human immunodeficiency virus 1; test: Ratio of IC50 for ENF-resistant HIV1 NL4-3 harboring gp41 N-terminal heptad repeat V38A/N42T double mutant to IC50 for wild type HIV1 NL4-3; assay type: functional
[21] = target: Envelope glycoprotein gp160 (Human immunodeficiency virus type 1 group M subtype B (isolate HXB2)(HIV-1)) (UniProt P04578); test: Binding affinity to HIV-1 HXB2 gp41 N-terminal heptad repeat assessed as thermostability of protein-compound complex at 10 uM after 30 mins by CD spectroscopic analysis; conditions: Human immunodeficiency virus 1
[22] = tested on: Human immunodeficiency virus 1; test: Antiviral activity against HIV-1 pseudovirus harboring Q66R/N126K double mutant; assay type: functional, organism-based
[23] = tested on: Human immunodeficiency virus 1; test: Ratio of IC50 for ENF-resistant HIV1 NL4-3 harboring gp41 N-terminal heptad repeat V38A mutant to IC50 for wild type HIV1 NL4-3; assay type: functional
[24] = tested on: Human immunodeficiency virus 1; test: Antiviral activity against ENF-resistant HIV1 NL4-3 harboring gp41 N-terminal heptad repeat V38M mutant infected in human TZM-bl cells assessed as inhibition of viral entry into cells after 48 hrs by single-cycle infection assay; assay type: functional, organism-based
[25] = tested on: Human immunodeficiency virus 1; test: Ratio of IC50 for ENF-resistant HIV1 NL4-3 harboring gp41 N-terminal heptad repeat Q40H mutant to IC50 for wild type HIV1 NL4-3; assay type: functional
[26] = target: Envelope glycoprotein gp160 (Human immunodeficiency virus 1) (UniProt Q72502); test: Binding affinity to HIV1 NL4-3 gp41 N-terminal heptad repeat I37T/N43K double mutant after 30 mins by CD spectroscopic analysis
[27] = tested on: Human immunodeficiency virus 1; test: Antiviral activity against HIV-1 ZM214M.15 pseudovirus infected in human TZM-bl cells assessed as inhibition of viral entry into cells after 48 hrs by single-cycle infection assay; assay type: functional, organism-based; conditions: Human immunodeficiency virus 1, ZM214M.15, TZM-bl
[28] = tested on: Human immunodeficiency virus 1; test: Ratio of IC50 for ENF-resistant HIV1 NL4-3 harboring gp41 N-terminal heptad repeat D36G mutant to IC50 for wild type HIV1 NL4-3; assay type: functional
[29] = tested on: Human immunodeficiency virus 1; test: Antiviral activity against wild type HIV1 NL4-3 infected in human TZM-bl cells assessed as inhibition of viral replication after 2 days by luciferase reporter gene assay; assay type: functional, organism-based; conditions: Human immunodeficiency virus 1, NL4-3, TZM-bl, 48 h
[30] = tested on: Human immunodeficiency virus 1; test: Ratio of IC50 for ENF-resistant HIV1 NL4-3 harboring gp41 N-terminal heptad repeat I37T mutant to IC50 for wild type HIV1 NL4-3; assay type: functional
[31] = tested on: Human immunodeficiency virus 1; test: Antiviral activity against HIV-1 SF162 pseudovirus infected in human TZM-bl cells assessed as inhibition of viral entry into cells after 48 hrs by single-cycle infection assay; assay type: functional, organism-based; conditions: Human immunodeficiency virus 1, SF162, TZM-bl
[32] = tested on: Human immunodeficiency virus 1; test: Antiviral activity against ENF-resistant HIV1 NL4-3 harboring gp41 N-terminal heptad repeat Q40H mutant infected in human TZM-bl cells assessed as inhibition of viral entry into cells after 48 hrs by single-cycle infection assay; assay type: functional, organism-based
[33] = Thermostability of the compound in PBS assessed as melting temperature at 20 uM by CD spectroscopic analysis; assay type: physicochemical; conditions: buffer
[34] = tested on: Human immunodeficiency virus 1; test: Antiviral activity against ENF-resistant HIV1 NL4-3 harboring gp41 N-terminal heptad repeat D36S/V38M double mutant infected in human TZM-bl cells assessed as inhibition of viral entry into cells after 48 hrs by single-cycle infection assay; assay type: functional, organism-based
[35] = tested on: Human immunodeficiency virus 1; test: Antiviral activity against HIV1 NL4-3 pseudovirus infected in human TZM-bl cells assessed as inhibition of viral entry into cells after 48 hrs by single-cycle infection assay; assay type: functional, organism-based; conditions: Human immunodeficiency virus 1, NL4-3, TZM-bl
[36] = target: Envelope glycoprotein gp160 (Human immunodeficiency virus 1) (UniProt Q72502); test: Binding affinity to HIV1 NL4-3 gp41 N-terminal heptad repeat N43K mutant after 30 mins by CD spectroscopic analysis
[37] = tested on: Human immunodeficiency virus 1; test: Antiviral activity against ENF-resistant HIV1 NL4-3 harboring gp41 N-terminal heptad repeat V38A/N42T double mutant infected in human TZM-bl cells assessed as inhibition of viral entry into cells after 48 hrs by single-cycle infection assay; assay type: functional, organism-based

In the case of `CC[C@H](C)[C@H](NC(=O)[C@H](C)NC(=O)[C@H](CCCNC(=N)N)NC(=O)[C@H](CC(=O)O)NC(=O)[C@H](Cc1c[nH]c2ccccc12)NC(=O)[C@H](C)NC(=O)[C@H](CCC(=O)O)NC(=O)[C@H](Cc1c[nH]c2ccccc12)NC(=O)[C@@H](NC(=O)[C@@H](N)[C@@H](C)O)[C@@H](C)O)C(=O)N[C@@H](C)C(=O)N[C@@H](CCC(=O)O)C(=O)N[C@@H](Cc1ccc(O)cc1)C(=O)N[C@@H](C)C(=O)N[C@@H](C)C(=O)N[C@@H](CCCNC(=N)N)C(=O)N[C@H](C(=O)N[C@@H](CCC(=O)O)C(=O)N[C@@H](C)C(=O)N[C@@H](CC(C)C)C(=O)N[C@H](C(=O)N[C@@H](CCCNC(=N)N)C(=O)N[C@@H](C)C(=O)N[C@@H](C)C(=O)N[C@@H](CCC(N)=O)C(=O)N[C@@H](CCC(=O)O)C(=O)N[C@@H](CCC(N)=O)C(=O)N[C@@H](CCC(N)=O)C(=O)N[C@@H](CCC(=O)O)C(=O)N[C@@H](CCCCN)C(=O)N[C@@H](CC(N)=O)C(=O)N[C@@H](CCC(=O)O)C(=O)N[C@@H](C)C(=O)N[C@@H](C)C(=O)N[C@@H](CC(C)C)C(=O)N[C@@H](CCCNC(=N)N)C(=O)N[C@@H](CCC(=O)O)C(=O)N[C@@H](CC(C)C)C(=O)O)[C@@H](C)CC)[C@@H](C)CC`, the “Ratio IC50” value [1] is reported as 1.1, the Activity [2] is reported as “Active” and the “Ratio IC50” value [3] is reported as 1.6. The IC50 [4] was 1.3 nM, the Activity [5] was “Active” and the Activity [6] was “Active”. The IC50 [7] was 1.8 nM, the “Ratio IC50” value [8] was 1.6 and the Activity [9] was “Active”. The IC50 [10] was 1.7 nM, the “Ratio IC50” value [11] was 1.9 and the IC50 [12] was 2.1 nM. The IC50 [13] was 2.64 nM, the Activity [14] was “Active” and the IC50 [15] was 1.1 nM. The Stability [16] was “Stable”, the IC50 [17] was 1.32 nM and the IC50 [18] was 67.5 nM. The IC50 [19] was 1.7 nM, the “Ratio IC50” value [20] was 0.7 and the Tm [21] was 82.2 °C. For the same molecule, the IC50 [22] was 8.36 nM, the “Ratio IC50” value [23] was 1.2 and the IC50 [24] was 1.8 nM. The “Ratio IC50” value [25] was 1.3, the Activity [26] was “Active” and the IC50 [27] was 0.68 nM. For the same molecule, the “Ratio IC50” value [28] was 1.6, the IC50 [29] was 0.52 nM and the “Ratio IC50” value [30] was 1.6. It also gave an IC50 [31] of 12.5 nM, an IC50 [32] of 1.4 nM and a Tm [33] of 45.1 °C. The IC50 [34] was 1.2 nM, the IC50 [35] was 1.15 nM and the Activity [36] was “Active”. It also gave an IC50 [37] of 0.8 nM.

From ChEMBL document CHEMBL3600303, “The N-Terminal T-T Motif of a Third-Generation HIV-1 Fusion Inhibitor Is Not Required for Binding Affinity and Antiviral Activity” (J Med Chem, 2015)
